Laboratory results taken from patent US20240207268A1, “PYRAZOLYLPYRIMIDINES FOR TREATING MALIGNANT SOLID TUMOR” (BIOTHERYX, INC., priority 2021, published 2024).

Columns and labels:
[1] = GLP 28-day oral toxicology study of compound A22 in Sprague Dawley rats; format: in vivo; details: rat, in vivo, once daily oral gavage, di-HCl or di-p-toluenesulfonate salt, read-out: NOAEL (no-observed-adverse-effect-level) dose
Experimental: (§1) The toxicology studies of compound A22 were performed in Sprague Dawley rats and Beagle dogs. In GLP, 28-day (once daily, 7 days per week) studies, compound A22 was administered as a di-HCl salt or di-p-toluenesulfonate salt by oral gavage. The results are summarized in Tables 1 and 2, where HNSTD is highest nonseverely toxic dose; NOAEL is no-observed-adverse-effect-level; and STDio is severely toxic dose in 10%.

[2] = tested on: Sprague Dawley rats; assay: as above; format: in vivo; details: once daily oral gavage, di-HCl or di-p-toluenesulfonate salt
Experimental: as §1

[3] = Steady state toxicokinetics of compound A22 in Sprague Dawley rats (28-day study); details: rat, in vivo, oral gavage
Experimental: as §1

[4] = GLP 28-day oral toxicology study of compound A22 in Beagle dogs; format: in vivo; details: dog, in vivo, once daily oral gavage, di-HCl or di-p-toluenesulfonate salt, read-out: NOAEL (no-observed-adverse-effect-level) dose
Experimental: as §1

[5] = tested on: Beagle dogs; assay: as above; format: in vivo; details: once daily oral gavage, di-HCl or di-p-toluenesulfonate salt
Experimental: as §1

[6] = Steady state toxicokinetics of compound A22 in Beagle dogs (28-day study); details: dog, in vivo, oral gavage
Experimental: as §1

[7] = Solubility in water; format: physicochemical; details: in water at 25° C.
[8] = female rats, 0.7 mg/kg/day (NOAEL)
[9] = female rats, 2.5 mg/kg/day (STD10)
[10] = male rats, 0.7 mg/kg/day (NOAEL)
[11] = male rats, 2.5 mg/kg/day (STD10)
[12] = female dogs, 0.06 mg/kg/day (NOAEL)
[13] = female dogs, 0.2 mg/kg/day (HNSTD)
[14] = male dogs, 0.06 mg/kg/day (NOAEL)
[15] = male dogs, 0.2 mg/kg/day (HNSTD)

Structure (SMILES): Cn1ncc(-c2nc(N[C@H]3CC[C@H](N)CC3)ncc2Cl)c1CC1CC1 [A22, (1r,4r)-N^1-(5-chloro-4-(5-(cyclopropylmethyl)-1-methyl-1H-pyrazol-4-yl)pyrimidin-2-yl)cyclohexane-1,4-diamine]
- NOAEL at 28 day [1]: 0.7 mg/kg/day
- STD10 (severely toxic dose in 10%) dose [2]: 2.5 mg/kg/day
- AUC(0-t) [3, 8]: 160 ng·h/mL
- Cmax [3, 8]: 13.6 ng/mL
- AUC(0-t) [3, 9]: 2390 ng·h/mL
- Cmax [3, 9]: 156 ng/mL
- AUC(0-t) [3, 10]: 152 ng·h/mL
- Cmax [3, 10]: 13.7 ng/mL
- AUC(0-t) [3, 11]: 2520 ng·h/mL
- Cmax [3, 11]: 184 ng/mL
- NOAEL at 28 day [4]: 0.06 mg/kg/day
- HNSTD (highest nonseverely toxic dose) [5]: 0.2 mg/kg/day
- AUC(0-t) [6, 12]: 129 ng·h/mL
- Cmax [6, 12]: 7.55 ng/mL
- AUC(0-t) [6, 13]: 471 ng·h/mL
- Cmax [6, 13]: 30.6 ng/mL
- AUC(0-t) [6, 14]: 102 ng·h/mL
- Cmax [6, 14]: 6.38 ng/mL
- AUC(0-t) [6, 15]: 567 ng·h/mL
- Cmax [6, 15]: 34.4 ng/mL

Structure (SMILES): Cc1ccc(S(=O)(=O)O)cc1.Cc1ccc(S(=O)(=O)O)cc1.Cn1ncc(-c2nc(N[C@H]3CC[C@H](N)CC3)ncc2Cl)c1CC1CC1 [crystalline di-p-toluenesulfonate salt, di-p-toluensulfonate of (1r,4r)-N^1-(5-chloro-4-(5-(cyclopropylmethyl)-1-methyl-1H-pyrazol-4-yl)pyrimidin-2-yl)cyclohexane-1,4-diamine]
- solubility [7]: about 2 mg/mL
